Values quoted from earlier work as cited in patent US20220241222A1, “ATOMOXETINE HYDROCHLORIDE EXTENDED RELEASE COMPOSITIONS AND METHODS OF USE” (CELISTA PHARMACEUTICALS LLC, priority 2019, published 2022).
Like-named read-outs stand apart in the source and are kept apart here.

Key:
[1] = for mean apparent plasma clearance / mean half-life: oral administration
[2] = oral, immediate release capsules
[3] = CYP2D6 poor metabolizers vs EMs
[4] = primarily as 4-hydroxyatomoxetine-O-glucuronide

Structure (SMILES): Cc1ccccc1O[C@H](CCN)c1ccccc1 [N-desmethylatomoxetine, N-Desmethylatomoxetine]
- plasma concentrations compared with atomoxetine ([1]; circulating metabolite): lower concentrations

Structure (SMILES): CNCC[C@@H](Oc1ccccc1C)c1ccccc1.Cl [Atomoxetine hydrochloride, (−)-N-Methyl-3-phenyl-3-(o-tolyloxy)-propylamine hydrochloride]
- absolute bioavailability ([1]; extensive metabolizers): 63%
- absorption after oral administration ([1]; from immediate release capsules): well-absorbed
- effect of food on absorption [1, 2]: minimally affected by food
- estimated half-life [1, 2]: about 5 hours
- absolute bioavailability ([1]; poor metabolizers): 94%

Structure (SMILES): CNCC[C@@H](Oc1ccccc1C)c1ccccc1 [atomoxetine, (−)-N-Methyl-3-phenyl-3-(o-tolyloxy)-propylamine]
- AUC of atomoxetine, PMs greater than EMs [1, 3]: approximately 10 fold
- Css, max, PMs greater than EMs [1, 3]: about 5 fold
- mean apparent plasma clearance ([1]; PMs): 0.5 mL/min/kg
- mean half-life ([1]; PMs): 21.6 h
- mean apparent plasma clearance ([1]; adult EMs): 5.83 mL/min/kg
- mean half-life ([1]; adult EMs): 5.2 h
- excretion in the feces [1, 4]: less than 17 % of the dose
- excretion in the urine [1, 4]: greater than 80 % of the dose
- pressor response (patients with central autonomic impairment (multiple system atrophy)): large pressor responses
- seated and standing systolic blood pressure compared to placebo (pediatric dose of 18 mg): significantly increases
